Measurements taken from doi:10.1101/2025.07.07.663466v1 (biorxiv, 2025).

Target: M. tuberculosis GroEL1 (Cpn60.1) (Mycobacterium tuberculosis, UniProt P9WPE9)
Sequence (P9WPE9 2-539 limits assumed): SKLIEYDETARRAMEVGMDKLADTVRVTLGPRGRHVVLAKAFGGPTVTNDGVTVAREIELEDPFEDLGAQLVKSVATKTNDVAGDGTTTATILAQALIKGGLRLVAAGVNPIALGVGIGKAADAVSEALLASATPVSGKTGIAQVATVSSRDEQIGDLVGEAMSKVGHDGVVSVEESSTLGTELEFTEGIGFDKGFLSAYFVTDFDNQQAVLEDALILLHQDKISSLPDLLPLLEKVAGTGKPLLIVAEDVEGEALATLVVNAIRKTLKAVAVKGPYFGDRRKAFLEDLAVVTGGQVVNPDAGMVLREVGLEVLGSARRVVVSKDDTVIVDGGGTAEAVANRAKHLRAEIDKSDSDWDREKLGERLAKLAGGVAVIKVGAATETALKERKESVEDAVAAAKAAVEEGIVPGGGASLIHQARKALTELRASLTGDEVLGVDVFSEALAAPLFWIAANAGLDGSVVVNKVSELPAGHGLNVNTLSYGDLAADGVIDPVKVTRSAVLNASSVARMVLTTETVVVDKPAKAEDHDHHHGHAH

CCC(=O)SCCNC(=O)CCNC(=O)[C@H](O)C(C)(C)COP(=O)(O)OP(=O)(O)OC[C@H]1O[C@@H](n2cnc3c(N)ncnc32)[C@H](O)[C@@H]1OP(=O)(O)O [propionyl-CoA]
auto-propionylation, anti-propionyllysine enrichment and MS/MS: Using propionyl-CoA as a substrate
